Experimental data taken from patent US4272541A, “7,8 and 7-8 Substituted 4,5α-epoxymorphinan-6-one compounds, and methods of treating pain and drug dependence with them” (Miles Laboratories, Inc., priority 1979, dated 1981).
Where a name gives a salt, the structure may show the parent alone. Read-outs that look alike come from different tables or passages of the source.

Assays:
writhing = experiment: Acetic acid mouse writhing test (analgesic effects); type: in vivo, mice (male CD-1); settings: for analgesic activity / analgesic/narcotic antagonist profile: in words; for analgesic/narcotic antagonist profile: from writhing ED50 and tail flick AD50 together
Description: (A) Analgesic effects upon mice (acetic acid writhing test).
TEST A. ACETIC ACID MOUSE WRITHING TEST
The analgesic effects of test compounds were determined in mice by use of the acetic acid writhing test described by B. J. R. Whittle, Brit. J. Pharmacol., 22:246 (1964). In this test at least three groups of five male CD-1 mice (18-22 g) each were given subcutaneous doses of the test drug dissolved in either distilled water or distilled water acidified with HCl depending on the solubility of the compound. In all cases, 0.4 milliliter of a 0.5% V/V acetic acid in distilled water solution was administered intraperitoneally 15 minutes post drug. The number of writhes in a 20 min. interval beginning 5 minutes after the acetic acid injection were determined and compared with the number of writhes in control groups which had received only acetic acid.
Percent inhibition of writhing was calculated as: [formula]
The ED50 dose, i.e., the dose required to reduce the number of writhes by 50%, was determined graphically from a plot of % inhibition as a probit versus log dose. Confidence limits of 95% were calculated on the basis of those results falling in the range 16-84% inhibition. See Litchfield, J. T. and Wilcoxon, F., J. Pharmacol. Exp. Ther., 96, 99-113, (1949).

morphine effect = experiment: Narcotic antagonist activity, modified rat tail flick test; type: in vivo, rats (male albino Wistar); settings: for ED50: Rattus norvegicus, ip, read-out: AD50 (the source's name); for narcotic antagonist activity: in words
Description: (B) Narcotic antagonist activity in rats (modified rat tail flick test).
TEST B. EVALUATION OF NARCOTIC ANTAGONIST ACTIVITY
The narcotic antagonist effects of test compounds were determined by a modification of the rat tail flick procedure of Harris and Pierson (J. Pharmacol. Exp. Ther. 143,141 [1964]).
Male albino Wistar rats (100-120 g) were used for this study. A rat's tail is so placed so as to cover a photocell. Heat is applied by a lamp in a reflector with a timer being connected to the lamp and photocell so that the timer goes on when the light is turned on and is turned off when the photocell is uncovered. A rheostat, incorporated into a heating lamp is used to adjust the intensity of the light falling on the tail of the rat such that the rat's control reaction time is from two to four seconds. Animals with a control reaction time outside this range are rejected. The rheostat adjustment is made only if a significant proportion (more than 2 out of every 10 rats) of the reaction times are outside the range of two to four seconds. Groups of five rats were used each time, and two control times were determined at 60 and 30 minutes prior to subcutaneous injection of the drug.
Thirty minutes after the last control run the test drug was given intraperitoneally. This was followed ten minutes later by an ED80 dose of morphine subcutaneously. The animals were retested at 20 minutes after the morphine injection. Control animals were given vehicle and morphine only. The data were calculated as follows: [formula]
The data were plotted on log-probit paper and AD50 values, i.e., the dose required to inhibit the morphine effect by 50% within 95% confidence limits, were determined by the method of Litchfield and Wilcoxon.

[1] = Mus musculus, sc, 0.25 h, mice, subcutaneous, acetic acid i.p. 15 minutes post drug, Table I, read-out: ED50
[2] = rats, test drug i.p. 10 minutes before ED80 dose of morphine s.c., Table I
[3] = mice, subcutaneous, acetic acid i.p. 15 minutes post drug, Table I

## COc1ccc2c3c1O[C@H]1C(=O)CC[C@H]4[C@@H](C2)N(CC2CC2)CC[C@]314 [TR-5095, 7,8-dihydro-17-cyclopropylmethylnorcodeinone, reference compound]
writhing; [1]
  ED50: 17 mg/kg
Morphine effect; [2]
  ED50: 3.4 mg/kg

## Br.COc1ccc2c3c1O[C@H]1C(=O)CC[C@H]4[C@@H](C2)N(CC2CCC2)CC[C@]314 [TR-5108, 17-Cyclobutylmethyl-4,5α-epoxy-3-methoxymorphinan-6-one Hydrobromide, reference compound]
writhing; [1]
  ED50: 8.8 mg/kg
Morphine effect; [2]
  AD50: IA.3

## CC[C@H]1CC(=O)[C@@H]2Oc3c(OC)ccc4c3[C@@]23CCN(CC2CC2)[C@H](C4)[C@H]13.Cl [TR-5109, 17-Cyclopropylmethyl-4,5α-epoxy-8β-ethyl-3-methoxymorphinan-6-one Hydrochloride]
writhing; [1]
  ED50: 2.1 mg/kg
writhing
  analgesic activity: especially effective analgesics
Morphine effect; [2]
  ED50: 0.78 mg/kg
Morphine effect
  narcotic antagonist activity: especially effective narcotic antagonists

## CC[C@H]1CC(=O)[C@@H]2Oc3c(O)ccc4c3[C@@]23CCN(CC2CCC2)[C@H](C4)[C@H]13 [TR-5115, 17-Cyclobutylmethyl-4,5α-epoxy-8β-ethyl-3-hydroxymorphinan-6-one]
writhing; [1]
  ED50: 9.2 mg/kg
Morphine effect; [2]
  ED50: 0.52 mg/kg
Morphine effect
  narcotic antagonist activity: especially effective narcotic antagonists

## CC[C@H]1CC(=O)[C@@H]2Oc3c(O)ccc4c3[C@@]23CCN(CC2CC2)[C@H](C4)[C@H]13 [TR-5126, 17-Cyclopropylmethyl-4,5α-epoxy-8β-ethyl-3-hydroxymorphinan-6-one]
writhing; [1]
  ED50: 7.8 mg/kg
Morphine effect; [2]
  ED50: 0.25 mg/kg
Morphine effect
  narcotic antagonist activity: especially effective narcotic antagonists

## C=CCN1CC[C@]23c4c5ccc(OC)c4O[C@H]2C(=O)C[C@H](CC)[C@H]3[C@H]1C5.Cl [TR-5256, 17-Allyl-4,5α-epoxy-8β-ethyl-3-methoxymorphinan-6-one Hydrochloride]
writhing
  analgesic/narcotic antagonist profile: some mixed analgesic narcotic antagonist activity but is not particularly potent in either respect
Morphine effect; [2]
  ED50: 5.6 mg/kg

## C=CCN1CC[C@]23c4c5ccc(O)c4O[C@H]2C(=O)C[C@H](CC)[C@H]3[C@H]1C5.Cl [TR-5266, 17-Allyl-4,5α-epoxy-8β-ethyl-3-hydroxymorphinan-6-one Hydrochloride]
writhing
  analgesic activity: except for TR-5266 they demonstrate analgesic activity
writhing; [3]
  ED50: IA 10
Morphine effect; [2]
  ED50: 0.58 mg/kg
Morphine effect
  narcotic antagonist activity: especially effective narcotic antagonists

## CC[C@H]1CC(=O)[C@@H]2Oc3c(O)ccc4c3[C@@]23CCN(CC2CCCO2)[C@H](C4)[C@H]13.Cl (stereo partly drawn) [TR-5271, 4,5α-Epoxy-8β-ethyl-3-hydroxy-17-tetrahydrofurfuryl-morphinan-6-one Hydrochloride]
writhing; [1]
  ED50: 1.06 mg/kg
writhing
  analgesic activity: especially effective analgesics
Morphine effect; [2]
  ED50: 1.8 mg/kg

## COc1ccc2c3c1O[C@H]1C(=O)[C@@H](C)C[C@H]4[C@@H](C2)N(CC2CC2)CC[C@]314 [TR-5394, Hydrochloride]
writhing; [3]
  ED50: IA 10
Morphine effect; [2]
  ED50: 1.6 mg/kg

## C[C@H]1C[C@H]2[C@H]3Cc4ccc(O)c5c4[C@@]2(CCN3CC2CC2)[C@@H](O5)C1=O [TR-5402, 17-Cyclopropylmethyl-4,5α-epoxy-3-hydroxy-7α-methylmorphinan-6-one]
writhing; [1]
  ED50: 0.42 mg/kg
writhing; Mus musculus, sc, agonist-antagonist potency, unit inferred, read-out: ED50
  ED50: 0.42 mg/kg
writhing
  analgesic/narcotic antagonist profile: mixed analgesics/narcotic antagonists
Morphine effect; agonist-antagonist potency, unit inferred
  ED50: 1.63 mg/kg

## COc1ccc2c3c1O[C@H]1C(=O)[C@@H](C)C[C@H]4[C@@H](C2)N(CC2CCC2)CC[C@]314.Cl [TR-5403, 17-Cyclobutylmethyl-4,5α-epoxy-3-methoxy-7α-methylmorphinan-6-one Hydrochloride]
writhing; [1]
  ED50: 9 mg/kg
Morphine effect; rats, vs morphine, *Estimated
  ED50: 16.5 mg/kg

## C[C@H]1C[C@H]2[C@H]3Cc4ccc(O)c5c4[C@@]2(CCN3CC2CCC2)[C@@H](O5)C1=O [TR-5404, 17-Cyclobutylmethyl-4,5α-epoxy-3-hydroxy-7α-methylmorphinan-6-one Hydrochloride]
writhing; [1]
  ED50: 0.3 mg/kg
Morphine effect; [2]
  ED50: 13.2 mg/kg

## COc1ccc2c3c1O[C@H]1C(=O)[C@@H](C)[C@H](C)[C@H]4[C@@H](C2)N(CC2CC2)CC[C@@]341 [TR-5410, 17-Cyclopropylmethyl-7α,8β-dimethyl-4,5-epoxy-3-methoxymorphinan-6-one Hydrochloride]
writhing; [1]
  ED50: > 10 mg/kg
Morphine effect; [2]
  ED50: 0.98 mg/kg

## C[C@@H]1[C@H]2[C@H]3Cc4ccc(O)c5c4[C@@]2(CCN3CC2CC2)[C@@H](O5)C(=O)[C@H]1C.Cl [TR-5416, 17-Cyclopropylmethyl-7α,8β-dimethyl-4,5α-epoxy-3-hydroxymorphinan-6-one Hydrochloride]
writhing
  analgesic/narcotic antagonist profile: pure narcotic antagonist
writhing; [3]
  ED50: IA 10
Morphine effect; [2]
  ED50: 0.57 mg/kg

## CC[C@@H]1CC(=O)[C@@H]2Oc3c(OC)ccc4c3[C@@]23CCN(CC2CC2)[C@H](C4)[C@H]13.O=C(O)C(O)C(O)C(=O)O [TR-5427, 17-Cyclopropylmethyl-4,5α-epoxy-8α-ethyl-3-methoxymorphinan-6-one Tartrate]
writhing; [1]
  ED50: > 10 mg/kg
Morphine effect; [2]
  ED50: > 10 mg/kg

## CC[C@@H]1CC(=O)[C@@H]2Oc3c(OC)ccc4c3[C@@]23CCN(CC2CCC2)[C@H](C4)[C@H]13.O=C(O)C(O)C(O)C(=O)O [TR-5428, 17-Cyclobutylmethyl-4,5α-epoxy-8α-ethyl-3-methoxymorphinan-6-one Tartrate]
writhing; [3]
  ED50: IA 10
Morphine effect; [2]
  AD50: IA 10

## COc1ccc2c3c1O[C@H]1C(=O)[C@@H](C)[C@H](C)[C@H]4[C@@H](C2)N(CC2CCC2)CC[C@@]341 [TR-5429, 17-Cyclobutylmethyl-7α,8β-dimethyl-4,5α-epoxy-3-methoxymorphinan-6-one]
writhing; [1]
  ED50: > 10 mg/kg
Morphine effect; [2]
  ED50: ~10 mg/kg

## C[C@@H]1[C@H]2[C@H]3Cc4ccc(O)c5c4[C@@]2(CCN3CC2CCC2)[C@@H](O5)C(=O)[C@H]1C [TR-5430, 17-Cyclobutylmethyl-7α,8β-dimethyl-4,5α-epoxy-3-hydroxymorphinan-6-one]
writhing; [1]
  ED50: 5.8 mg/kg
writhing
  analgesic/narcotic antagonist profile: mixed analgesics/narcotic antagonists
Morphine effect; [2]
  ED50: 2.5 mg/kg

## CC[C@@H]1CC(=O)[C@@H]2Oc3c(O)ccc4c3[C@@]23CCN(CC2CC2)[C@H](C4)[C@H]13.Cl [TR-5436, 17-Cyclopropylmethyl-4,5α-epoxy-8α-ethyl-3-hydroxymorphinan-6-one Hydrochloride]
writhing; [1]
  ED50: 0.36 mg/kg
writhing
  analgesic activity: strong analgesic
  analgesic/narcotic antagonist profile: mixed analgesic/narcotic antagonist
Morphine effect; [2]
  ED50: 4.1 mg/kg
Morphine effect
  narcotic antagonist activity: also exhibits narcotic antagonist activity

## CC[C@@H]1CC(=O)[C@@H]2Oc3c(O)ccc4c3[C@@]23CCN(CC2CCC2)[C@H](C4)[C@H]13.Cl [TR-5437, 17-Cyclobutylmethyl-4,5α-epoxy-8α-ethyl-3-hydroxymorphinan-6-one Hydrochloride]
writhing; [1]
  ED50: 0.15 mg/kg
writhing
  analgesic/narcotic antagonist profile: pure analgesic
Morphine effect; [2]
  ED50: > 10 mg/kg
